Columns and labels:
[1] = biological target: P-gp (P-gp over-expressing cell line, DU145TXR) (Homo sapiens, UniProt P08183); experiment: Cellular accumulation of experimental compounds by LC-MS/MS with and without tariquidar
Protocol: Stimulation of basal ATPase by 29-variants was used as an indicator that a compound may be a P-gp transport substrate. Effects on stimulated P-gp ATPase activity indicated whether a compound directly interfered with ATP usage by the protein (***, p<0.001; **, p<0.01; *, p<0.1; NS, not significant). Quantitative cellular accumulation of 29-variants was performed using LC-MS/MS and is presented as a ratio of the cellular amounts of 29-variants in the presence of P-gp inhibitor, tariquidar, divided by amounts accumulated in its absence. […] Binding of an ATP analog, SL-ATP, to P-gp was used to determine whether ATP binding to P-gp was affected by the 29-variants. Values +/−standard deviations are shown for at least three different P-gp preparations and three independent SL-ATP titration experiments. The values for SL-ATP binding in the presence of 29 were taken directly from Brewer et al. (2014).
Intracellular accumulation of compound 29 variants. Cell accumulation assays for each of the 29 variants were performed as in reference^28 to more directly assess whether the compounds were indeed transport substrates for P-gp.
Cellular Accumulation Assays for Experimental P-gp Inhibitors. Cells used (DU145TXR), cell culturing, cell exposure to compounds, cellular handling and extractions were performed as described in^28. LC-MS/MS methods were performed as described in^71 and as modified in^28.

[2] = test system: P-gp overexpressing prostate cancer cell line, DU145TXR; experiment: MTT cell viability assay, resensitization to paclitaxel; assay type: cell-based, human; settings: Homo sapiens; paclitaxel alone, DU145TXR, 48 hours; read-out: IC50 PTX, PTX alone
Excerpt: The Group 1 ChemGen/docking routine produced variants of P-gp inhibitor 29 resensitize a multidrug resistant, P-gp overexpressing prostate cancer cell line to paclitaxel. The mitochondrial reduction potential of cells is often used as an indicator for cell viability using MTT assays^4. Using these assays it was observed that the five Group 1 derivatives of 29 predicted through the ChemGen/docking routine and synthesized here, 216, 227, 231, 541 and 551, re-sensitized the P-gp overexpressing prostate cancer cell line, DU145TXR^33, to the chemotherapeutic, paclitaxel (FIG. 12, showing results of assays at concentrations of 3 μM, 5 μM, 7 μM, and 10 μM).
Cytotoxicity of the chemotherapeutic, paclitaxel (PTX) to P-gp overexpressing prostate cancer cells, DU145TXR, was determined in the absence and presence of the ChemGen designed 29-variants, 216, 227, 231, 541 and 551. For each experimental compound IC50 values of PTX alone or in the presence of inhibitors, fold improvement of PTX sensitivity in the presence of inhibitor, and fold improvement of PTX sensitivity by variants compared to parental compound 29 are given.
Effects of Group 2 variants on the paclitaxel sensitivity of P-glycoprotein overexpressing prostate cancer cells, DU145TXR. MTT assays were again used to assess the efficacy of the new structural 29-variants on sensitizing the chemotherapy-resistant prostate cancer cell line, DU145TXR, to paclitaxel, at concentrations of 3 μM, 5 μM, 7 μM, and 10 μM as shown in FIG. 15 and Table 4.
MTT cell viability assay. Cells were trypsinized from monolayers and seeded with 3000 cells in 150 μL of complete medium in a 96 well plate. After 24 hours, cells were treated for 48 hours with paclitaxel (Acros Organics, NJ) and/or P-gp inhibitory compounds dissolved in DMSO, or DMSO controls. All additions were diluted into complete medium. After 48 hours of treatment, MTT assays were performed as described^41 using 5 mg/mL of MTT (Acros Organics, NJ) solution prepared in PBS (137 mM NaCl, 2.7 mM KCl, 10 mM Na2HPO4, 1.8 mM KH2PO4, pH 7.4). After 4 hours of incubation with MTT, the media was removed and the formazan crystals were dissolved in 100 μL of DMSO. The absorbance at 570 nm was then measured using a BioTek Cytation 5 imaging multi-mode reader (Bio-Tek, Winooski, Vt.). Percent viability was calculated using DMSO treated cells as representative for 100% viability, according to Equation 1. Background absorbance was determined using MTT and complete medium without cells and subtracted from all the test values. Equation 1:
The results were plotted as the mean with standard deviation (SD) of eight replicates per concentration from at least two independent experiments with n=8. The graphical representations and IC50 values were determined using four parameter variable slope non-linear regression, using the following equation: Y=bottom+(top-bottom)/(1+10^((log IC50−X)*Hill Slope) (GraphPad Prism™, La Jolla Calif., USA, Version 6.05). The reported “fold sensitization” was calculated as follows, per Equation 2: […]

Chain of P-gp (P-gp over-expressing cell line, DU145TXR) (P08183 whole entry): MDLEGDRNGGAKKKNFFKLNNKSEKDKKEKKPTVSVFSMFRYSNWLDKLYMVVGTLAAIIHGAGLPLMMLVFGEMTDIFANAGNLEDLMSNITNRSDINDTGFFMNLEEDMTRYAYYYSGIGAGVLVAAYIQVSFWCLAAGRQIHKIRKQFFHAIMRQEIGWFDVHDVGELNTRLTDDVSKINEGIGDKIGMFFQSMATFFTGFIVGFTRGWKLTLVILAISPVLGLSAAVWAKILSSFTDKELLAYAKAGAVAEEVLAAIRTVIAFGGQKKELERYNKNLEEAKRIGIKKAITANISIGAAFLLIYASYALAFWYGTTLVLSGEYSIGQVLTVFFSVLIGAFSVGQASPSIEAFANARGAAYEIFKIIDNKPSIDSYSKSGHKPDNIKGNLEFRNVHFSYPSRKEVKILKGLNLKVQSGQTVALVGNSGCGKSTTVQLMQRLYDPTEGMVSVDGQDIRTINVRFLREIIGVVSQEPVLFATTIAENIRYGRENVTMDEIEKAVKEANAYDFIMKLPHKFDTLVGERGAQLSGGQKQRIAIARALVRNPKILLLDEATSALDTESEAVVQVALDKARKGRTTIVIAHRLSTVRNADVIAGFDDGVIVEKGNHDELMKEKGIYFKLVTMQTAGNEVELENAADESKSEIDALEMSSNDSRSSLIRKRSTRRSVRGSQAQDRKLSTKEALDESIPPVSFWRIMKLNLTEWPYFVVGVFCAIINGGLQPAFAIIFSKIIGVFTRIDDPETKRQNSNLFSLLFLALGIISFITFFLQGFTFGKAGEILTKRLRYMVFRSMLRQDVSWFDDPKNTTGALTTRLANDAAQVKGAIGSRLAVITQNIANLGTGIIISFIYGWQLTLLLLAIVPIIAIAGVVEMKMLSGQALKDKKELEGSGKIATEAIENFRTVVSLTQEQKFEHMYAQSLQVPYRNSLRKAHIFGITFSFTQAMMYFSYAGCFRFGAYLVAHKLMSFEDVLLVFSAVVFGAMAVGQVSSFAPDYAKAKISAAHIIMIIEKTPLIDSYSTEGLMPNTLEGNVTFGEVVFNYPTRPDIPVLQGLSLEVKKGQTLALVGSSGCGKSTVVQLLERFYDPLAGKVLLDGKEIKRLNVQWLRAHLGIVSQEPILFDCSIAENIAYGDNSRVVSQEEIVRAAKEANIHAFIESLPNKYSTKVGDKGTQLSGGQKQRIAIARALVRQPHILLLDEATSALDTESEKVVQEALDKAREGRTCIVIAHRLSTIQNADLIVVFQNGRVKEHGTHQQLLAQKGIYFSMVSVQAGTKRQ

SMILES	Transport substrate for P-gp ([1]; DU145TXR accumulation with/without tariquidar (and basal ATPase))	Intracellular accumulation in absence vs presence of tariquidar (in words) ([1]; DU145TXR, LC-MS/MS)	IC50 [2]
COc1cccc2c1C(=O)c1c(O)c3c(c(O)c1C2=O)C[C@@](O)(C(C)=O)C[C@@H]3O[C@H]1C[C@H](N)[C@H](O)[C@H](C)O1 [Daunorubicin, reference compound]	good transport substrate for P-gp	very strong cellular accumulation	–
CC(=O)O[C@H]1C(=O)[C@@]2(C)[C@H]([C@H](OC(=O)c3ccccc3)[C@]3(O)C[C@H](OC(=O)[C@H](O)[C@@H](NC(=O)c4ccccc4)c4ccccc4)C(C)=C1C3(C)C)[C@]1(OC(C)=O)CO[C@@H]1C[C@@H]2O [PTX, paclitaxel, reference compound]	–	–	2120 nM
